The conditions of series [1]: reported value for the free dye; cited from earlier work.
Series [2] in a line: Fluorescence excitation and emission spectra. Type of series: physicochemical. An excerpt:
FIG. 2A is a graph of Near-Infra-Red fluorescence absorbance and emission spectra of CF750 at varying wavelengths, according to an example embodiment of the present disclosure. CF750 has a NIRF peak excitation (solid line) and a peak emission (dotted line) at 760 nm and 780 nm, respectively. Likewise, FIG. 2B is a graph of near-infra-red fluorescence absorbance and emission spectra of IRDye® CW800, according to an example embodiment of the present disclosure. IRDye® CW800 has a peak NIRF excitation and a peak NIRF emission at 774 nm and 789 nm, respectively. FIG. 2C is a graph of absorbance and emission spectra of anticancer drug doxorubicin at varying wavelengths, according to an example embodiment of the present disclosure. Doxorubicin has a peak excitation and a peak emission at 470 nm and 550 nm, respectively.
DSA (3 mg) is mixed with 800 μL of 1:1 dichloromethane and methanol in a glass vial. IRDye® 800CW NHS ester (0.5 mg) was dissolved in methanol (200 μL) then immediately combined with the lipid solution. The mixture is covered to protect it from light and left on a vortex mixer for 2.5 h. The solvent is then reduced in vacuum, dissolved in minimal amount of chloroform and applied to a silica micro-column (˜3 mL) also in chloroform. The unbound fraction is reapplied several times, before elution and washing with the same solvent. Excess DSA and unreacted dye material is retained on the column and the latter is estimated at <10% of the coloured fraction. The unbound product is dried to a film and stored as a solution in 1 mL chloroform.

As for `CC1(C)C(/C=C/C2=C(Oc3ccc(S(=O)(=O)O)cc3)C(=C/C=C3/N(CCCCS(=O)(=O)O)c4ccc(S(=O)(=O)[O-])cc4C3(C)C)/CCC2)=[N+](CCCCCC(=O)O)c2ccc(S(=O)(=O)O)cc21` [IRDye® CW800], in series [1], the “Emmax, reported value” is reported as 789 nm and the “Exmax, reported value” was 774 nm. Besides, in series [2], the “peak emission (Emmax)” value turned out to be 789 nm and the “peak excitation (Exmax)” value amounted to 774 nm.

Turning to `COc1cccc2c1C(=O)c1c(O)c3c(c(O)c1C2=O)C[C@@](O)(C(=O)CO)C[C@@H]3O[C@H]1C[C@H](N)[C@H](O)[C@H](C)O1` [Doxorubicin, doxorubicin], in series [2], the “peak emission (Emmax)” value was found to be 550 nm and the “peak excitation (Exmax)” value was determined as 470 nm.

Source of the values: US20220370001A1, “INTESTINAL DIAGNOSTIC SCREENING DEVICE AND METHOD FOR TARGETED GASTROINTESTINAL THERAPY” (AJM MED-I-CAPS LTD, priority 2019, published 2022).
